Test results reported in patent publication US8461166B2, “Polyalkylene glycol derivatives of inhibitors of epidermal growth factor receptor tyrosine kinase” (Hadasit Medical Research Services and Development Ltd., priority 2005, dated 2013).
Values after ≈ are worked out from the molar mass of the structure shown.

Experiments:
[1] = biological target: T1, EGFR (Homo sapiens, UniProt P00533); assay: Irreversibility test protocol: EGFR autophosphorylation inhibition in intact A431 cells (Western blot); type: cell-based; conditions: for irreversible inhibitory characteristic (irreversible binding to EGFR): A431 cells, EGF stimulation 8 hours after removal of the inhibitor vs immediately after
T1 construct: endogenous in cells; host or cells: A431 human epidermoid vulval carcinoma cells
T1 sequence (P00533 25-1210): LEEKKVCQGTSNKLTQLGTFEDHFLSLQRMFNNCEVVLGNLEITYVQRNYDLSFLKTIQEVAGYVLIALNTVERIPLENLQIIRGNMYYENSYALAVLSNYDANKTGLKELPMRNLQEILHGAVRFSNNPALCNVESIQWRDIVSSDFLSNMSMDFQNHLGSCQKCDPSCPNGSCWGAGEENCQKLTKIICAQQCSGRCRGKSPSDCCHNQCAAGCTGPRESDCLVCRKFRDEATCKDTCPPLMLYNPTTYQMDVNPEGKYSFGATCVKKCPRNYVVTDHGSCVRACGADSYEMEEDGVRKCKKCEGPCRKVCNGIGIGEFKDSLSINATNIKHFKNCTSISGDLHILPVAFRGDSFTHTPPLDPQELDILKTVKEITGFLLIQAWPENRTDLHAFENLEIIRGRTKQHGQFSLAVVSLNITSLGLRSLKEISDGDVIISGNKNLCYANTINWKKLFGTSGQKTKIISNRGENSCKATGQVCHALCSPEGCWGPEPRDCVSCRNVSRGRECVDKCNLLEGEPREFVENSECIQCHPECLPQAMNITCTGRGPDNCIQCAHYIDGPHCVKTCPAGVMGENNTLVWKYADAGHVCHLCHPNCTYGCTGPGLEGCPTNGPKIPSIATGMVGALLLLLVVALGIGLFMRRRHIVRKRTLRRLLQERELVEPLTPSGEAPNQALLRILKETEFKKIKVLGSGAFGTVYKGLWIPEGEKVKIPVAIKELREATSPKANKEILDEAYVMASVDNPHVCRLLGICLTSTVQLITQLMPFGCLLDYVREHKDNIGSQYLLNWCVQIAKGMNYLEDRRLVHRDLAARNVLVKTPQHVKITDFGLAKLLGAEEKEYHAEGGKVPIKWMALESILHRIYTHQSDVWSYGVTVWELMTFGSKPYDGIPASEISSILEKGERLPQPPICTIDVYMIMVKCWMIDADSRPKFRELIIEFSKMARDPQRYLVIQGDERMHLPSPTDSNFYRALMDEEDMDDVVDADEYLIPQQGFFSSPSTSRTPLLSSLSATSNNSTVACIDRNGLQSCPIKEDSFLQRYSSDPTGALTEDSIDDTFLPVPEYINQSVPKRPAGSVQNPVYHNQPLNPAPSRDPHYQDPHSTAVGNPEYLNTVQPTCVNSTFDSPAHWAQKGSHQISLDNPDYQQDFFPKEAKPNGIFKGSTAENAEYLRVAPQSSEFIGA
Procedure: Irreversibility Test Protocol: The inhibitory potency of compounds 1a-c, as well as the irreversible nature of EGFR inhibition thereof were evaluated in intact A431 cells, according to published procedures (Smail et al., 1999). In brief, A431 human epidermoid vulval carcinoma were grown in six-well plates for 48 hours and further maintained in serum-free media for additional 18 hours. Duplicate sets of cells were incubated with increasing concentrations of the tested inhibitor for one hour. One set of the cells was thereafter stimulated with EGF, immediately after removal of the tested inhibitor. Another set of the cells was washed to remove the inhibitor, and EGF stimulation was carried out 8 hours after removal of the inhibitor from the medium. Cell lysates were prepared and loaded onto SDS-PAGE (8% acryl amide) for Western Blot analysis, and the extent of EGFR phosphorylation was evaluated by measuring the signal intensity of the corresponding phosphotyrosine band using a mix of anti-phosphotyrosine antibodies, PY20 (Santa Cruz Biotechnology Inc.) and 4G10 (produced from Su4G10 hybridoma cells). The degree of EGFR phosphorylation was measured for each set of cells and the IC50 values of Compounds 1a-c and 10b, vis-à-vis the level of EGFR's phosphotyrosine content were determined. A minimum of two different assays with similar results were considered. Each experiment was performed in duplicates.
The inhibitory potency of exemplary compounds according to the present embodiments, as well as the extent of their irreversible inhibition of the EGFR were first evaluated in intact A431 cells, using the protocol described hereinabove. The IC50 values were determined by the extent of EGFR phosphorylation at each inhibitor concentration either immediately after or 8 hours post removal of the tested inhibitor from the medium.

[2] = Water solubility determination (HPLC); type: physicochemical; conditions: aqueous buffer, thermodynamic from solid; MOPS buffer pH 7.4, room temperature
Procedure: DMSO (1 ml) and MOPS buffer pH 7.4 (1 ml) were separately added to test tubes containing the tested compound (Compounds 1a-c and 10b, ML04 or ML05), such that for each compound, two test tubes were prepared. The tubes were sonicated at room temperature for 20 minute, left intact for 10 minutes, and were then filtered through a 0.45 μm filter. Each of the DMSO solutions was diluted 10-folds with DMSO. A 50 μl sample of each solution was analyzed by HPLC (using C-18 analytical column, a mixture of 55% CH3CN:45% acetate buffer 0.1 M, pH 3.8, as a mobile phase at a flow rate of 1 ml/minute, and a UV detector operated at 254 nm). Measurements were performed in triplicate.

[3] = Partition coefficient determination (1-octanol/buffer, HPLC); type: physicochemical; conditions: 1-octanol / sodium phosphate buffer 0.1 M, pH 7.4; read-out: Log P (partition coefficient)
Procedure: Partition coefficient determination: Compounds 1a-c and 10b, ML04 and ML05 (3 mg) were dissolved in sodium phosphate buffer (0.1 M, pH 7.4, 5 ml) and 1-octanol (1 ml) and the resulting mixture was vortexed for 2 minutes, filtered, and maintained at room temperature for 10 minutes. The reaction mixture was then centrifuged at 4000 g for 10 minutes. Fifty (50) μl portions were taken from the organic (1-octanol) and from the aqueous (buffer) layers, and were dissolved in 0.45 ml acetonitrile. The samples were analyzed by HPLC system (C-18 analytical column, a mixture of 55% acetonitrile:45% acetate buffer 0.1 M, pH 3.8 as a mobile phase, flow rate of 1 ml/minute). The partition coefficients (Log P) were determined by the concentration ratio of the tested compound in the organic phase and the aqueous phase. Measurements were performed in triplicate.

| SMILES | irreversible inhibitory characteristic (irreversible binding to EGFR) [1] | melting point | IC50 ([1]; intact A431 cells, 1 hour incubation with inhibitor, EGF stimulation, read-out: IC50 vis-à-vis the level of EGFR's phosphotyrosine content) | solubility at 20 min [2] | logP [3] |
| --- | --- | --- | --- | --- | --- |
| O=C(CCl)Nc1cc2c(Nc3cc(Cl)c(Cl)cc3F)ncnc2cc1OCCOCCOCCOCCOCCOCCF [Compound 1c, 2-Chloro-N-(4-(4,5-Dichloro-2-fluoro-phenylamino)-7-{2-[2-(2-{2-[2-(2-fluoro-ethoxy)-ethoxy]-ethoxy}-ethoxy)-ethoxy]-ethoxy}-quinazoline-6-yl)-acetamide] | irreversibly bind to the EGFR |  |  |  |  |
| O=C(CCl)Nc1cc2c(Nc3cc(Cl)c(Cl)cc3F)ncnc2cc1OCCOCCF [Compound 1a, 2-Chloro-N-{4-(4,5-Dichloro-2-fluoro-phenylamino)-7-[2-(2-fluoro-ethoxy)-ethoxy]-quinazoline-6-yl}-acetamide] | irreversibly bind to the EGFR | 167 to 169 °C |  |  |  |
| O=C(CCl)Nc1cc2c(Nc3cc(Cl)c(Cl)cc3F)ncnc2cc1OCCOCCOCCOCCF [Compound 1b, 2-Chloro-N-[4-(4,5-Dichloro-2-fluoro-phenylamino)-7-(2-{2-[2-(2-fluoro-ethoxy)-ethoxy]-ethoxy}-ethoxy)-quinazoline-6-yl]-acetamide] | irreversibly bind to the EGFR | 135 to 137 °C |  |  |  |
| CN(C)CC=CC(=O)Nc1cc2c(Nc3cc(Cl)c(Cl)cc3F)ncnc2cc1OCCOCCOCCOCCF [Compound 10b, 4-dimethylamino-but-2-enoic acid {4-(4,5-Dichloro-2-fluoro-phenylamino)-7-(2-{2-[2-(2-fluoro-ethoxy)-ethoxy]-ethoxy}-ethoxy)-quinazoline-6-yl}-amide] | irreversible inhibitory characteristic |  | 5 nM | 3.5 µg/mL (≈ 5.57 µM) | 3.7 |
| CN(C)CC=CC(=O)Nc1ccc2ncnc(Nc3cc(Cl)c(Cl)cc3F)c2c1 [ML04, 4-dimethylamino-but-2-enoic acid [4-(3,4-dichloro-6-fluoro-phenylamino)-quinazoline-6-yl]-amide, reference compound] |  |  |  | 0.14 µg/mL (≈ 0.322 µM) | 3.9 |
